Inconclusive results and toxic doses are left out. Rule as the data show it: active = T/C of 150% or more; inactive = T/C below 125%.
System: L1210 leukemia ip in BDF1 mice, survival T/C
Test: NCI In Vivo Anticancer Drug Screen. Data for tumor model L1210 Leukemia (intraperitoneal) in B6D2F1 (BDF1) mice
Settings: endpoint: mean survival time, higher = longer survival
In short: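 Tumor was transplanted into mice, which were then dosed with test compound or vehicle alone. Survival was recorded for each group, and the treated figure was expressed relative to the control figure.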

[1] = dose: 100.0 mg/kg/injection, schedule: Q01DX009 (ip), vehicle: saline with Tween-80
[2] = dose: 200.0 mg/kg/injection, schedule: Q01DX009 (ip), vehicle: saline with Tween-80
[3] = dose: 100.0 mg/kg/injection, schedule: Q01DX001 (ip), vehicle: saline
[4] = dose: 200.0 mg/kg/injection, schedule: Q01DX001 (ip), vehicle: saline
[5] = dose: 400.0 mg/kg/injection, schedule: Q01DX001 (ip), vehicle: saline
[6] = dose: 100.0 mg/kg/injection, schedule: Q01DX009 (ip), vehicle: Klucel (hydroxypropylcellulose) (HPC)
[7] = dose: 200.0 mg/kg/injection, schedule: Q01DX009 (ip), vehicle: Klucel (hydroxypropylcellulose) (HPC)
[8] = dose: 400.0 mg/kg/injection, schedule: Q01DX009 (ip), vehicle: Klucel (hydroxypropylcellulose) (HPC)
[9] = dose: 100.0 mg/kg/injection, schedule: Q01DX009 (ip), vehicle: saline
[10] = dose: 100.0 mg/kg/injection, schedule: Q04DX003 (ip), vehicle: saline
[11] = dose: 200.0 mg/kg/injection, schedule: Q01DX009 (ip), vehicle: saline
[12] = dose: 200.0 mg/kg/injection, schedule: Q04DX003 (ip), vehicle: saline
[13] = dose: 400.0 mg/kg/injection, schedule: Q01DX009 (ip), vehicle: saline
[14] = dose: 400.0 mg/kg/injection, schedule: Q04DX003 (ip), vehicle: saline
[15] = dose: 12.5 mg/kg/injection, schedule: Q04DX003 (ip), vehicle: Klucel (hydroxypropylcellulose) (HPC)
[16] = dose: 25.0 mg/kg/injection, schedule: Q04DX003 (ip), vehicle: Klucel (hydroxypropylcellulose) (HPC)

Measured: T/C

c1ccc(-c2cc(-c3ccccc3)c(-c3ccccc3)c(-c3ccccc3)c2-c2ccccc2)cc1
inactive: dose: 50.0 mg/kg/injection, schedule: Q01DX009 (ip), vehicle: saline with Tween-80 87 % of control | [1] 93 % of control | [2] 93 % of control

Nc1ccc(CCCC(=O)Nc2ccc(S(=O)(=O)F)cc2)cc1
inactive: [3] 101 % of control | [4] 97 % of control | [5] 103 % of control

Cc1ccc(NC(=O)Oc2ccc3ccccc3c2)cc1NC(=O)Oc1ccc2ccccc2c1
inactive: dose: 100.0 mg/kg/injection, schedule: Q01DX009 (ip), vehicle: other 91 % of control | dose: 200.0 mg/kg/injection, schedule: Q01DX009 (ip), vehicle: other 93 % of control | dose: 400.0 mg/kg/injection, schedule: Q01DX009 (ip), vehicle: other 91 % of control

Clc1ccc(/C=C\c2ccncc2)cc1
inactive: dose: 50.0 mg/kg/injection, schedule: Q01DX001 (ip), vehicle: carboxymethylcellulose (CMC) 102 % of control | dose: 100.0 mg/kg/injection, schedule: Q01DX001 (ip), vehicle: carboxymethylcellulose (CMC) 98 % of control | dose: 200.0 mg/kg/injection, schedule: Q01DX001 (ip), vehicle: carboxymethylcellulose (CMC) 119 % of control | dose: 400.0 mg/kg/injection, schedule: Q01DX001 (ip), vehicle: carboxymethylcellulose (CMC) 98 % of control

CC[N+](CC)(CC)CCCCCCCCCC[N+](CC)(CC)CC
inactive: dose: 0.19 mg/kg/injection, schedule: Q01DX009 (ip), vehicle: water 100 % of control | dose: 0.39 mg/kg/injection, schedule: Q01DX009 (ip), vehicle: water 95 % of control | dose: 0.78 mg/kg/injection, schedule: Q01DX009 (ip), vehicle: water 90 % of control | dose: 0.78 mg/kg/injection, schedule: Q04DX003 (ip), vehicle: saline 103 % of control

COc1ccc(NC(=O)N(c2ccccc2)C(C)C)c(OC)c1
inactive: [6] 97 % of control | [7] 94 % of control | [8] 102 % of control

O=[N+]([O-])c1ccc(N=C=C(c2ccccc2)c2ccccc2)cc1
inactive: dose: 100.0 mg/kg/injection, schedule: Q04DX002 (ip), vehicle: DMSO 112 % of control | dose: 200.0 mg/kg/injection, schedule: Q04DX002 (ip), vehicle: DMSO 91 % of control | dose: 400.0 mg/kg/injection, schedule: Q04DX002 (ip), vehicle: DMSO 94 % of control

CC(=O)Nc1cc(Cl)c(Cl)cc1N
inactive: [6] 95 % of control | [7] 98 % of control | [8] 96 % of control

Nc1cc(S(=O)(=O)O)cc2ccc(S(=O)(=O)O)cc12
inactive: [9] 102 % of control | [10] 111 % of control | [11] 96 % of control | [12] 101 % of control | [13] 102 % of control | [14] 93 % of control

c1ccc2c(c1)cnn1cnnc21
inactive: dose: 75.0 mg/kg/injection, schedule: Q01DX001 (ip), vehicle: carboxymethylcellulose (CMC) 115 % of control | dose: 150.0 mg/kg/injection, schedule: Q01DX001 (ip), vehicle: carboxymethylcellulose (CMC) 97 % of control

[N-]=[N+]=Nc1ccc(-c2nc(N)[nH]c(=O)c2Br)cc1
inactive: dose: 100.0 mg/kg/injection, schedule: Q04DX003 (ip), vehicle: Klucel (hydroxypropylcellulose) (HPC) 93 % of control | dose: 200.0 mg/kg/injection, schedule: Q04DX003 (ip), vehicle: Klucel (hydroxypropylcellulose) (HPC) 86 % of control | dose: 400.0 mg/kg/injection, schedule: Q04DX003 (ip), vehicle: Klucel (hydroxypropylcellulose) (HPC) 100 % of control

Clc1cc(CBr)c(Cl)c(Cl)c1CBr
inactive: dose: 6.25 mg/kg/injection, schedule: Q01DX009 (ip), vehicle: saline sonified 94 % of control | dose: 6.25 mg/kg/injection, schedule: Q04DX003 (ip), vehicle: Klucel (hydroxypropylcellulose) (HPC) 97 % of control | dose: 12.5 mg/kg/injection, schedule: Q01DX009 (ip), vehicle: saline sonified 94 % of control | [15] 91 % of control | dose: 25.0 mg/kg/injection, schedule: Q01DX009 (ip), vehicle: saline sonified 91 % of control | [16] 98 % of control

CC(=O)[O][Hg][c]1cc(C)cc([N+](=O)[O-])c1O
inactive: dose: 6.25 mg/kg/injection, schedule: Q01DX009 (ip), vehicle: Klucel (hydroxypropylcellulose) (HPC) 94 % of control | dose: 12.5 mg/kg/injection, schedule: Q01DX009 (ip), vehicle: Klucel (hydroxypropylcellulose) (HPC) 100 % of control | [15] 100 % of control | dose: 25.0 mg/kg/injection, schedule: Q01DX009 (ip), vehicle: Klucel (hydroxypropylcellulose) (HPC) 92 % of control | [16] 95 % of control

Cc1ccccc1S(=O)(=O)c1cccs1
inactive: [3] 98 % of control | dose: 100.0 mg/kg/injection, schedule: Q04DX003 (ip), vehicle: acetone 98 % of control | [4] 95 % of control | dose: 200.0 mg/kg/injection, schedule: Q04DX003 (ip), vehicle: acetone 104 % of control | [5] 93 % of control | dose: 400.0 mg/kg/injection, schedule: Q04DX003 (ip), vehicle: acetone 93 % of control

CCOc1cc(/C=N/NC(=S)Nc2ccccc2)ccc1O
inactive: [6] 98 % of control | [7] 105 % of control | [8] 94 % of control

O=[N+]([O-])c1ccc(N/N=C/CC(O)CO)c([N+](=O)[O-])c1 (configuration not stated)
inactive: [9] 89 % of control | [10] 90 % of control | [11] 86 % of control | [12] 90 % of control | [13] 94 % of control | [14] 91 % of control

CCOC(=O)N1CCOCC1
inactive: [9] 100 % of control | [11] 97 % of control | [13] 96 % of control

C=CCNC(=O)Oc1cccc(NC(=O)N(C)C)c1
inactive: [1] 107 % of control | [2] 109 % of control | dose: 400.0 mg/kg/injection, schedule: Q01DX009 (ip), vehicle: saline with Tween-80 120 % of control

CC(C)(C)C1=NN=C(C(C)(C)C)CS(=O)C1
inactive: dose: 100.0 mg/kg/injection, schedule: Q04DX002 (ip), vehicle: Klucel (hydroxypropylcellulose) (HPC) 90 % of control | dose: 200.0 mg/kg/injection, schedule: Q04DX002 (ip), vehicle: Klucel (hydroxypropylcellulose) (HPC) 97 % of control | dose: 400.0 mg/kg/injection, schedule: Q04DX002 (ip), vehicle: Klucel (hydroxypropylcellulose) (HPC) 101 % of control

Source: PubChem BioAssay AID248 (DTP/NCI, 2004)
